Reference: paper PMC5503626, “GLUT1-mediated selective tumor targeting with fluorine containing platinum(II) glycoconjugates” (Oncotarget, 2017)

Experiments:
[1] = test system: MCF7 (human breast cancer cell line); assay: MTS cytotoxicity assay, MCF7; format: cell-based; settings: 72 h, mean ± SD
Protocol: (§1) The cisplatin stock solution was prepared in PBS.

[2] = test system: HT29 (human colon cancer cell line); settings: read-out: IC50 (μM) HT29; MTS assay, 72 h, mean ± SD
Protocol: The human colon cancer (HT29), breast cancer (MCF7), prostate cancer (DU145) and ovarian cancer (SK-OV-3) cell lines, were obtained from Central Institute of Pharmaceutical Research, CSPC Pharmaceutical Group, China. The human lung cancer cell lines H460 and A549 were purchased from the American Type Culture Collection (ATCC). […] MCF7 and SK-OV-3 were cultured in advanced Dulbecco's modified Eagle medium (DMEM), and other cell lines were cultured as adherent monolayer in RPMI-1640 supplemented with 1% (w/v) glutamine and 10% (v/v) fetal bovine serum (Gibco) at 37°C under a humidified atmosphere containing 5% CO2 and 95% air.
Cytotoxicity assays were carried out by the Celltiter 96 aqueous nonradioactive cell proliferation assay (Promega, Madison, WI). Cells were harvested by trypsinization and seeded in a 96-well flat-bottomed microplate in volumes of 100 μL at the following appropriate densities: 5.0 × 10^3 (A549), 8.0 × 10^3 (HT29), and 3.0 × 10^3 (H460), 5.0 × 10^3 (SKOV3), 8.0 × 10^3 (MCF7), 8.0 × 10^3 (DU145) cells per well. After being allowed to settle and resume exponential growth for 24 h, the cells were treated either with vehicle or with appropriate serial dilutions of the complexes. […] All the tested compounds were dissolved at room temperature prior to use and serially diluted in medium. Cells were incubated in a humidified atmosphere of 5% CO2 at 37°C for 72h. After incubation, 20 μL of MTS/PMS solution were added to each well and the mixtures were allowed to equilibrate for 2 h. The absorbance of MTS products was measured spectrophotometrically at 490 nm with microplate reader (VERSAmax, USA). The IC50 values of each test sample were calculated from nonlinear curve fits using dose-response equation in GraphPad Prism (La Jolla, CA). Experimental conditions were performed in five replicates and the calculated IC50 values are averages of three individual experiments.

[3] = test system: H460 (human lung cancer cell line); assay: MTS cytotoxicity assay, H460; format: cell-based; settings: 72 h, mean ± SD
Protocol: as §1

[4] = test system: 5′-Guanosine Monophosphate (5′-GMP); assay: Reaction kinetics with 5′-GMP by 1H NMR; settings: 5 mM complex, 10 mM 5′-GMP, 5 mM NaCl, pH 7.2-7.4, 37°C
Protocol: A 5 mM solution of the sodium chloride was added to the mixture to simulate the intracellular environment.
Kinetic study of the substitution reactions between sugar conjugated platinum complexes with 5′-Guanosine Monophosphate was performed on Bruker Avance 400 MHz spectrometer by ^1H NMR analysis. Platinum complex (5 mM) and 5′-GMP (10 mM) were freshly prepared in deuterium oxide (D2O) at 37°C. A 5 mM solution of the NaCl in D2O was added to the mixture just before running the spectra. All samples were incubated at 37°C in a water bath to simulate physiological conditions and 1H NMR spectra were recorded at 295 K over a period of several days.

[5] = test system: SKOV3 (human ovarian cancer cell line); assay: MTS cytotoxicity assay, SKOV3; format: cell-based; settings: for IC50: MTS assay, 72 h, mean ± SD
Protocol: as §1

[6] = test system: A549 (human lung carcinoma); assay: MTS cytotoxicity assay, A549; format: cell-based; settings: for IC50: MTS assay, 72 h, mean ± SD
Protocol: as §1

[7] = test system: DU145 (human prostate cancer cell line); assay: MTS cytotoxicity assay, DU145; format: cell-based; settings: 72 h, mean ± SD
Protocol: as §1

[8] = test system: HT29 human colon cancer cell line; assay: GLUT1 inhibitor (quercetin) dependent cytotoxicity assay; format: cell-based; settings: 48 h
Protocol: (E) RT-PCR analysis of GLUT1 mRNA expression in empty vector transfected and shGLUT1-transfected cells. NT: HT29 cells; mock: HT29 cells transfected by empty vector pLKO.1; shRNA1: HT29 cells transfected by shGLUT1-1 and selected by 1 μg/mL of puromycin; shRNA2: HT29 cells transfected by shGLUT1-2 and selected by 1 μg/mL of puromycin. […] HT29 exposed with PBS or quercetin alone were served as negative control. […] Data was calculated from three independent experiments. *P < 0.05, compared to the control group.
HT29 cells were grown in monolayer and were treated with and without quercetin, followed by exposure to 100 μM of platinum(II) complexes for 48 h. MTS assay was used to analyze the cell viability and the effects of GLUT1 inhibitor quercetin on cytotoxicity.

pUC18 plasmid DNA = assay: Plasmid unwinding assay (gel electrophoresis); settings: 12.5 to 100 μM, 37°C
Protocol: To assess if the in vitro anti-proliferative activity of the sugar conjugates may be at the DNA adduct level, a plasmid unwinding assay was performed. The local untwisting of closed-circular supercoiled DNA induced by different types of platinum−DNA adducts can be determined by this assay [36]. […] On agarose gels, supercoiled plasmid DNA (form I) migrates faster in an electrical field than the nicked circle (form II).
After the incubation period, drug-DNA mixtures were loaded onto 0.8% agarose gel and electrophoresis was performed in Tris-acetate/EDTA buffer (TAE) for 1.5 h at 80 V. The gel was stained with GelRed^TM nucleic acid dye, visualized and photographed on the Bio-Rad Trans illuminator IEC 1010 (Bio-Rad, Hercules, CA).

[9] = test system: cisplatin resistant HT29cisR human colon carcinoma cell line; assay: Cytotoxicity in cisplatin resistant cells; format: cell-based; settings: read-out: IC50 against HT29cisR
Protocol: as §1

BALB/c nude mice = settings: previous study; cited from earlier work
DBA/2 mice [10] = settings: previous study; cited from earlier work
[11] = test system: HT29 tumor xenograft BALB/c nude mice model
Protocol: Female BALB/c nude mice were inoculated by subcutaneous injection of HT29 human colon cancer cells (5 × 10^6). For the treatment groups, drug dosage was adjusted for average body weight for each group. Injection volume was 10 mL/kg. Each treatment group contains eight mice and control animals used ten mice and received injections of sterile saline. Treatments were initiated when the tumor reached a volume of 100-300 mm^3 in all mice. Animals received multiple treatments intravenously on days 0, 7, 14 and 21. […] Saline (5% v/v) was administered to the vehicle control group. Tumor volume was assessed regularly by measuring length (l) and width (w) with caliper and calculated using the formula V = lw^2/2. Body weight was recorded and used as a parameter of systemic toxicity. All mice were sacrificed on the 46th day of the experiment, and the tumor weight was measured.

[12] = test system: L1210 leukemia bearing DBA/2 mice; settings: 5a 11 mg/kg (18% MTD) vs oxaliplatin 7 mg/kg (70% MTD), i.p., days 1, 5, 9
Protocol: The same male DBA/2 mice were used for in vivo efficacy study. Mice were kept in a pathogen-free environment under a condition of constant photoperiod. […] Six mice for treatment groups and ten mice for control group were used for this in vivo study. L1210 murine leukemia cells (1 × 10^6) were injected intraperitoneally into DBA/2 mice on day 0. […] Control group of ten mice each received injections of sterile saline. Animals were observed daily for clinical signs of toxicity and body weight was measured throughout the study.

[13] = test system: HT29, empty vector transfected and shGLUT1-transfected cells; assay: Cellular platinum accumulation (ICP-MS); format: cell-based, human; settings: 200 μM, 2 h, DNA isolated
Protocol: The uptake values are depicted in Figure 5H.
HT29 cells were seeded in 10 cm dishes at densities of 6 × 10^6 cells/dish and kept at 37°C in a humidified 5% CO2 incubator. […] The cell suspensions were centrifuged at 2500 rpm for 10 min and remove the PBS. Vortex vigorously to resuspend cells. Nuclei lysis solution was added to lyse the cells. DNA was extracted with TIANamp Genomic DNA kit (TIANGEN). The extracted DNA was dissolved in concentrated nitric acid (0.05 mL) and diluted with 4.95 mL of deionized water (final concentration 1% v/v) for determining the platinum content. The platinum content taken up by the cells was determined by Agilent 7700X ICP-MS (Agilent Technologies, Tokyo, Japan). Calibrations were done using standard solutions containing 6.25, 12.5, 25, 50 and 100 ppb platinum.

DBA/2 mice [14] = settings: both mouse models (DBA/2 and BALB/c)
Protocol: The maximum tolerated dose is defined as the highest tolerated dose (mean weight loss < 15%) without causing major (life-threatening) toxicity (< 15% toxic deaths) in the study.
Three weeks-old male DBA/2 mice purchased from Beijing Vital River Laboratory Animal Technology Co. Ltd. were used for MTD study. Determination of MTD was performed as previously described [22]. […] Physiological observations (body weight and food consumption) were recorded. The maximum tolerated dose is defined as the highest tolerated dose (mean weight loss < 15%) and not cause major (life-threatening) toxicity (< 15% toxic deaths) during the study.

Structure (SMILES)	IC50 [1] [µM]	IC50 [2] [µM]	IC50 [3] [µM]	reaction with 5′-GMP compared to oxaliplatin [4]	IC50 [5] [µM]	lower IC50 values than oxaliplatin in SK-OV-3 ([5]; versus oxaliplatin)	IC50 [6] [µM]	IC50 [7] [µM]	cytotoxic effect of quercetin alone ([8]; quercetin 20 μM alone)	mobility of supercoiled and singly-nicked plasmid DNA bands (pUC18 plasmid DNA)	IC50 [9] [µM]	MTD (BALB/c nude mice) [mpk]	MTD (DBA/2 mice [10]) [mpk]	body weight change versus vehicle group ([11]; 5a 25 mg/kg, oxaliplatin 7 mg/kg, i.v. qw x 4)	dependency of cell-killing potency on quercetin ([8]; 100 μM platinum complex, with or without quercetin (20 μM))	lifespan and survival rate [12]	activity higher than oxaliplatin in A549 ([6]; versus oxaliplatin) [fold]	platinum uptake (intracellular platinum accumulation) [13]	MTD higher than oxaliplatin (DBA/2 mice [14]) [fold]	tumor volume ([11]; 25 mg/kg i.v., days 0, 7, 14, 21)
O=C1[O][Pt]2([NH][C@@H]3CCCC[C@H]3[NH]2)[O]C(=O)C1(F)CCO[C@H]1O[C@H](CO)[C@@H](O)[C@H](O)[C@@H]1O (stereo partly drawn) [5b, (trans-R,R-cyclohexane-1,2-diamine)-2-fluoromalonatoplatinum(II)-α-D-mannose conjugate]	0.41 ± 0.09	2.16 ± 0.18	10.2 ± 0.15	faster reactions	2.22 ± 0.19	up to 70%	0.65 ± 0.1	2.6 ± 0.18												
O=c1c(O)c(-c2ccc(O)c(O)c2)oc2cc(O)cc(O)c12 [quercetin]									did not exert any cytotoxic effect											
N.N.[Cl][Pt][Cl] [Cisplatin, cis-(NH3)2PtCl2]										increased and showed concentration dependency	19.4									
O=C1[O][Pt]2([NH][C@@H]3CCCC[C@H]3[NH]2)[O]C1=O [Oxaliplatin, reference compound]	0.79 ± 0.11	5.05 ± 0.2	22.11 ± 0.17		8.54 ± 0.18		0.86 ± 0.09	2.05 ± 0.16		increased and showed concentration dependency		7	10	no significant difference	did not exhibit quercetin dependent cytotoxicity					
O=C1[O][Pt]2([NH][C@@H]3CCCC[C@H]3[NH]2)[O]C(=O)C1(F)CCO[C@H]1O[C@H](CO)[C@@H](O)[C@H](O)[C@H]1O (stereo partly drawn) [5a, (trans-R,R-cyclohexane-1,2-diamine)-2-fluoromalonatoplatinum(II)-α-D-glucose conjugate]	0.61 ± 0.13	0.53 ± 0.16	11.05 ± 0.11	faster reactions	16.7 ± 0.32		0.35 ± 0.17	5.98 ± 0.16				36	60			overwhelming superiority in lifespan and survival rate	2	greater than that in HT29-shRNA1 and HT29-shRNA2 cells	~5	statistically significant tumor shrinkage
O=C1[O][Pt]2([NH][C@@H]3CCCC[C@H]3[NH]2)[O]C(=O)C1(F)CCO[C@@H]1O[C@H](CO)[C@H](O)[C@H](O)[C@H]1O (stereo partly drawn) [5c, (trans-R,R-cyclohexane-1,2-diamine)-2-fluoromalonatoplatinum(II)-β-D-galactose conjugate]	9.82 ± 0.12	1.07 ± 0.12	10 ± 0.15	faster reactions	22.05 ± 0.2		4.9 ± 0.16	5.11 ± 0.14												
